From PubChem BioAssay AID342 (DTP/NCI, 2004)
Where “and” joins values, the source holds several entries; their conditions need not be identical. Equal entries are not always repeated.

Test system: Swiss mice, Sarcoma 180 sc, mean tumor weight T/C
Test: NCI In Vivo Anticancer Drug Screen. Data for tumor model Sarcoma 180 (subcutaneous) in Swiss mice
Details: endpoint: mean tumor weight, higher = larger tumour
How it was run: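 Tumor-bearing mice, transplantable tumor; readout survival or tumor size; result = T/C, treated vs vehicle control.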

[1] = dose: 62.5 mg/kg/injection, schedule: Q01DX007 (ip), vehicle: carboxymethylcellulose (CMC)
[2] = dose: 125.0 mg/kg/injection, schedule: Q01DX007 (ip), vehicle: carboxymethylcellulose (CMC)
[3] = dose: 50.0 mg/kg/injection, schedule: Q01DX007 (ip), vehicle: carboxymethylcellulose (CMC)
[4] = dose: 200.0 mg/kg/injection, schedule: Q01DX007 (ip), vehicle: carboxymethylcellulose (CMC)
[5] = dose: 400.0 mg/kg/injection, schedule: Q01DX007 (ip), vehicle: carboxymethylcellulose (CMC)
[6] = dose: 800.0 mg/kg/injection, schedule: Q01DX007 (ip), vehicle: carboxymethylcellulose (CMC)

In the case of NNC(=O)NC(=O)NN, the T/C (dose: 9.5 mg/kg/injection, schedule: Q01DX007 (ip), vehicle: carboxymethylcellulose (CMC)) is reported as 91 % of control, the T/C (dose: 19.0 mg/kg/injection, schedule: Q01DX007 (ip), vehicle: carboxymethylcellulose (CMC)) is reported as 124 % of control and the T/C (dose: 38.0 mg/kg/injection, schedule: Q01DX007 (ip), vehicle: carboxymethylcellulose (CMC)) is reported as 111 % of control. For the same compound, the T/C (dose: 76.0 mg/kg/injection, schedule: Q01DX007 (ip), vehicle: carboxymethylcellulose (CMC)) was 69 % of control.

c1ccc2nc3c(nc2c1)[nH]c1ccccc13 was tested, and the T/C [1] was 76 % of control, the T/C [2] was 67 % of control and the T/C (dose: 250.0 mg/kg/injection, schedule: Q01DX007 (ip), vehicle: carboxymethylcellulose (CMC)) was 114 % of control.

With Nc1nc(SC2=NCCN2)c2[nH]cnc2n1 the T/C (dose: 1.25 mg/kg/injection, schedule: Q01DX007 (ip), vehicle: carboxymethylcellulose (CMC)) was 57 % of control, the T/C (dose: 2.5 mg/kg/injection, schedule: Q01DX007 (ip), vehicle: carboxymethylcellulose (CMC)) was 67 % of control and the T/C (dose: 5.0 mg/kg/injection, schedule: Q01DX007 (ip), vehicle: carboxymethylcellulose (CMC)) was 57 % of control.

In the case of CC(=O)Nc1c(Cl)cc2c(c1Cl)Cc1cc([N+](=O)[O-])ccc1-2, the T/C (dose: 222.0 mg/kg/injection, schedule: Q01DX007 (ip), vehicle: saline) is reported as 59 % of control.

In the case of OCC1OC(n2cnc3c(Cl)ncnc32)C(O)C1O (stereo unspecified), the T/C (dose: 5.9 mg/kg/injection, schedule: Q01DX007 (ip), vehicle: carboxymethylcellulose (CMC)) is reported as 102 % of control, the T/C (dose: 11.75 mg/kg/injection, schedule: Q01DX007 (ip), vehicle: carboxymethylcellulose (CMC)) is reported as 104 % of control and the T/C (dose: 23.5 mg/kg/injection, schedule: Q01DX007 (ip), vehicle: carboxymethylcellulose (CMC)) is reported as 105 % of control. The T/C (dose: 47.0 mg/kg/injection, schedule: Q01DX007 (ip), vehicle: carboxymethylcellulose (CMC)) was 113 % of control, the T/C [3] was 75 % of control and the T/C (dose: 94.0 mg/kg/injection, schedule: Q01DX007 (ip), vehicle: carboxymethylcellulose (CMC)) was 38 % of control. The T/C (dose: 100.0 mg/kg/injection, schedule: Q01DX007 (ip), vehicle: carboxymethylcellulose (CMC)) was 110 % of control, the T/C (dose: 187.5 mg/kg/injection, schedule: Q01DX007 (ip), vehicle: carboxymethylcellulose (CMC)) was 29 % of control and the T/C [4] was 102 % of control. The T/C (dose: 375.0 mg/kg/injection, schedule: Q01DX007 (ip), vehicle: carboxymethylcellulose (CMC)) was 36 % of control, the T/C [5] was 70 % of control and the T/C (dose: 750.0 mg/kg/injection, schedule: Q01DX007 (ip), vehicle: carboxymethylcellulose (CMC)) was 36 % of control. The T/C [6] was 122 % of control.

COc1ccc2c(c1)CC[C@@H]1[C@@H]2CC[C@@]2(C)[C@H]1CC[C@@]2(O)C(F)=C(F)F was tested, and the T/C (dose: 33.0 mg/kg/injection, schedule: Q01DX007 (sc), vehicle: steriod suspending solution) was 52 % of control, the T/C (dose: 50.0 mg/kg/injection, schedule: Q01DX007 (sc), vehicle: steriod suspending solution) was 46 % of control and the T/C (dose: 75.0 mg/kg/injection, schedule: Q01DX007 (sc), vehicle: steriod suspending solution) was 44 % of control. For the same compound, the T/C (dose: 111.0 mg/kg/injection, schedule: Q01DX007 (sc), vehicle: steriod suspending solution) was 45 % of control, the T/C (dose: 167.0 mg/kg/injection, schedule: Q01DX007 (sc), vehicle: steriod suspending solution) was 37 % of control and the T/C (dose: 250.0 mg/kg/injection, schedule: Q01DX007 (sc), vehicle: steriod suspending solution) was 50 % of control. For the same compound, the T/C (dose: 375.0 mg/kg/injection, schedule: Q01DX007 (sc), vehicle: steriod suspending solution) was 55 % of control.

In the case of CN(/N=N/N(C)c1ccccc1)c1ccccc1, the T/C (dose: 7.8 mg/kg/injection, schedule: Q01DX007 (ip), vehicle: carboxymethylcellulose (CMC)) is reported as 72 % of control, the T/C (dose: 15.6 mg/kg/injection, schedule: Q01DX007 (ip), vehicle: carboxymethylcellulose (CMC)) is reported as 62 % of control and the T/C (dose: 31.3 mg/kg/injection, schedule: Q01DX007 (ip), vehicle: carboxymethylcellulose (CMC)) is reported as 75 % of control. For the same compound, the T/C [1] was 49 % of control and 74 % of control and the T/C [2] was 37 % of control.

For c1ccc2cc3c(cc2c1)Cn1c-3nc2ccccc21, the T/C (dose: 25.0 mg/kg/injection, schedule: Q01DX007 (ip), vehicle: carboxymethylcellulose (CMC)) was 76 % of control, the T/C [3] was 86 % of control and the T/C [4] was 53 % of control and 57 % of control. The T/C [5] was 54 % of control, the T/C (dose: 500.0 mg/kg/injection, schedule: Q01DX007 (ip), vehicle: carboxymethylcellulose (CMC)) was 27 % of control and 34 % of control and the T/C [6] was 38 % of control.

With ON=C1c2cc(Cl)ccc2-c2ccc(Cl)cc21 the T/C (dose: 26.6 mg/kg/injection, schedule: Q01DX007 (ip), vehicle: carboxymethylcellulose (CMC)) was 77 % of control, the T/C (dose: 40.0 mg/kg/injection, schedule: Q01DX007 (ip), vehicle: carboxymethylcellulose (CMC)) was 71 % of control and the T/C (dose: 60.0 mg/kg/injection, schedule: Q01DX007 (ip), vehicle: carboxymethylcellulose (CMC)) was 61 % of control. For the same compound, the T/C (dose: 90.0 mg/kg/injection, schedule: Q01DX007 (ip), vehicle: carboxymethylcellulose (CMC)) was 57 % of control.

N#[N+]c1nc2ncnc(N)c2[nH]1 was tested, and the T/C (dose: 6.25 mg/kg/injection, schedule: Q#A X014 (ip), vehicle: saline) was 66 % of control, the T/C (dose: 12.5 mg/kg/injection, schedule: Q#A X014 (ip), vehicle: saline) was 65 % of control and the T/C (dose: 25.0 mg/kg/injection, schedule: Q#A X014 (ip), vehicle: saline) was 86 % of control.

For NCC(=O)O.[Zn+2], the T/C (dose: 1.25 mg/kg/injection, schedule: Q01DX007 (iv), vehicle: water) was 99 % of control, the T/C (dose: 2.5 mg/kg/injection, schedule: Q01DX007 (iv), vehicle: water) was 83 % of control and the T/C (dose: 5.0 mg/kg/injection, schedule: Q01DX007 (iv), vehicle: water) was 113 % of control. The T/C (dose: 10.0 mg/kg/injection, schedule: Q01DX007 (iv), vehicle: water) was 95 % of control.

CC(=O)OCC1OC(n2ncc(=O)[nH]c2=O)C(OC(C)=O)C1OC(C)=O (stereo unspecified) was tested, and the T/C (dose: 375.0 mg/kg/injection, schedule: Q01DX007 (ip), vehicle: other) was 74 % of control, the T/C (dose: 750.0 mg/kg/injection, schedule: Q01DX007 (ip), vehicle: other) was 93 % of control and the T/C (dose: 1500.0 mg/kg/injection, schedule: Q01DX007 (ip), vehicle: other) was 74 % of control.
